Assay results: patent US20230114728A1 (Venatorx Pharmaceuticals, Inc., priority 2019, published 2023)
Values after ≈ are worked out from the molar mass of the structure shown.

Experiments:
Experiment in all cases: Broth microdilution MIC in CAMHB
Type in all cases: cell-based
E. coli AG100 = settings: Escherichia coli; E. coli AG100 (wild-type parent); MHB; read-out: Minimum Inhibitory Concentration, E. coli AG100
In short: (§1)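 Colonies from cation-adjusted Mueller Hinton agar are grown in broth (3-5 h, 37° C), adjusted by OD600, and added at 2-8×10^5 CFU/mL to 2-fold compound dilutions. After 16-20 h at 37° C, the lowest concentration without growth is taken as MIC.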

E. coli AG100A = settings: Escherichia coli, read-out: Minimum Inhibitory Concentration, E. coli AG100A
In short: as §1

A. baumannii ATCC 19606 = settings: Acinetobacter baumannii, ATCC19606; MHB; read-out: Minimum Inhibitory Concentration, A. baumannii ATCC 19606
In short: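 Per CLSI broth microdilution, colonies were grown 3-5 h at 37° C in cation-adjusted Mueller Hinton broth, then diluted to a starting inoculum of 2-8×10^5 CFU/mL against 2-fold serial compound dilutions. Plates were incubated 16-20 h at 37° C, and MIC was read visually as the lowest concentration with no growth.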

[1] = test system: K. pneumoniae UMM producing SHV-5 and KPC-2; settings: Klebsiella pneumoniae, read-out: Minimum Inhibitory Concentration, K. pneumoniae UMM
In short: as §1

[2] = test system: P. aeruginosa (ΔmexAB-oprM); settings: Pseudomonas aeruginosa, read-out: Minimum Inhibitory Concentration, P. aeruginosa ΔmexAB-OprM
In short: as §1

E. coli D22 = settings: Escherichia coli; E. coli D22 (hyper-permeable); MHB; read-out: Minimum Inhibitory Concentration, E. coli D22
In short: as §1

P. aeruginosa ATCC 35151 = settings: Pseudomonas aeruginosa, ATCC35151; MHB; hyper-permeable strain; read-out: Minimum Inhibitory Concentration, P. aeruginosa ATCC 35151
In short: as §1

[3] = test system: K. pneumoniae SI-117 producing VIM-1; settings: Klebsiella pneumoniae, read-out: Minimum Inhibitory Concentration, K. pneumoniae SI-117
In short: as §1

P. aeruginosa ATCC 27853 = settings: Pseudomonas aeruginosa, ATCC27853; MHB; read-out: Minimum Inhibitory Concentration, P. aeruginosa ATCC 27853
In short: as §1

[4] = test system: K. pneumoniae 848844 producing SHV-11 and KPC-2; settings: Klebsiella pneumoniae, read-out: Minimum Inhibitory Concentration, K. pneumoniae 848844
In short: as §1

E. coli 901C = settings: Escherichia coli; E. coli 901C (hyper-permeable); MHB; read-out: Minimum Inhibitory Concentration, E. coli 901C
In short: as §1

E. coli ATCC 25922 = settings: Escherichia coli, ATCC25922; E. coli ATCC 25922; MHB; read-out: Minimum Inhibitory Concentration, E. coli 25922
In short: as §1

Row | Compound | MIC (E. coli AG100) [µg/mL] | MIC (E. coli AG100A) [µg/mL] | MIC (A. baumannii ATCC 19606) [µg/mL] | MIC [1] [µg/mL] | MIC [2] [µg/mL] | MIC (E. coli D22) [µg/mL] | MIC (P. aeruginosa ATCC 35151) [µg/mL] | MIC [3] [µg/mL] | MIC (P. aeruginosa ATCC 27853) [µg/mL] | MIC [4] [µg/mL] | MIC (E. coli 901C) [µg/mL] | MIC (E. coli ATCC 25922) [µg/mL]
1 | NCCN1CCN(C(=O)N[C@@H](C(=O)N[C@H]2Cc3cccc(C(=O)O)c3OB2O)c2c(F)cccc2Cl)C(=O)C1=O (single isomer, unassigned) [Example 205] | > 128 | 8 to 16 (≈ 13.9 to 27.8 µM) | > 128 | > 128 | 32 to 64 (≈ 55.6 to 111 µM) | 32 to 64 (≈ 55.6 to 111 µM) | 8 to 16 (≈ 13.9 to 27.8 µM) | > 128 | > 128 | > 128 | 8 to 16 (≈ 13.9 to 27.8 µM) | > 128
2 | NCCN1CCN(C(=O)N[C@H](C(=O)N[C@H]2Cc3cccc(C(=O)O)c3OB2O)c2c(F)cccc2Cl)C(=O)C1=O (single isomer, unassigned) [Example 206] | > 128 | 32 to 64 (≈ 55.6 to 111 µM) | > 128 | > 128 | > 128 | > 128 | 32 to 64 (≈ 55.6 to 111 µM) | > 128 | > 128 | > 128 | 32 to 64 (≈ 55.6 to 111 µM) | > 128
3 | CCN1CCN(C(=O)NC(C(=O)N[C@H]2Cc3ccc(F)c(C(=O)O)c3OB2O)c2ncc(C(=O)O)cc2F)C(=O)C1=O (stereo partly drawn) [Example 33, 6-(2-(((R)-8-carboxy-7-fluoro-2-hydroxy-3,4-dihydro-2H-benzo[e][1,2]oxaborinin-3-yl)amino)-1-(4-ethyl-2,3-dioxopiperazine-1-carboxamido)-2-oxoethyl)-5-fluoronicotinic acid] | > 128 | > 128 | > 128 | > 128 | 32 to 64 (≈ 54.3 to 109 µM) | 2 to 4 (≈ 3.39 to 6.79 µM) | 0.5 to 1 (≈ 0.849 to 1.7 µM) | > 128 | > 128 | > 128 | 2 to 4 (≈ 3.39 to 6.79 µM) | > 128
4 | NCCCN1CCN(C(=O)NC(C(=O)N[C@H]2Cc3cccc(C(=O)O)c3OB2O)c2c(F)cc(O)cc2F)C(=O)C1=O (stereo partly drawn) [Example 183, (3R)-3-(2-(4-(3-aminopropyl)-2,3-dioxopiperazine-1-carboxamido)-2-(2,6-difluoro-4-hydroxyphenyl)acetamido)-2-hydroxy-3,4-dihydro-2H-benzo[e][1,2]oxaborinine-8-carboxylic acid] | 8 to 16 (≈ 13.6 to 27.2 µM) | 2 to 4 (≈ 3.39 to 6.79 µM) | > 128 | 8 to 16 (≈ 13.6 to 27.2 µM) | 8 to 16 (≈ 13.6 to 27.2 µM) | 2 to 4 (≈ 3.39 to 6.79 µM) | 2 to 4 (≈ 3.39 to 6.79 µM) | 32 to 64 (≈ 54.3 to 109 µM) | > 128 | 32 to 64 (≈ 54.3 to 109 µM) | 0.5 to 1 (≈ 0.848 to 1.7 µM) | 8 to 16 (≈ 13.6 to 27.2 µM)
5 | CCN1CCN(C(=O)NC(C(=O)N[C@H]2Cc3cccc(C(=O)O)c3OB2O)c2cc([N+](=O)[O-])c(O)cc2F)C(=O)C1=O (stereo partly drawn) [Example 184, (3R)-3-(2-(4-ethyl-2,3-dioxopiperazine-1-carboxamido)-2-(2-fluoro-4-hydroxy-5-nitrophenyl)acetamido)-2-hydroxy-3,4-dihydro-2H-benzo[e][1,2]oxaborinine-8-carboxylic acid] | 32 to 64 (≈ 54.5 to 109 µM) | 2 to 4 (≈ 3.41 to 6.81 µM) | > 128 | 32 to 64 (≈ 54.5 to 109 µM) | 8 to 16 (≈ 13.6 to 27.2 µM) | 2 to 4 (≈ 3.41 to 6.81 µM) | 0.5 to 1 (≈ 0.851 to 1.7 µM) | > 128 | > 128 | > 128 | < 0.25 | 32 to 64 (≈ 54.5 to 109 µM)
6 | CCN1CCN(C(=O)NC(C(=O)N[C@H]2Cc3cccc(C(=O)O)c3OB2O)c2ccc(O)c(Cl)c2F)C(=O)C1=O (stereo partly drawn) [Example 185, (3R)-3-(2-(3-chloro-2-fluoro-4-hydroxyphenyl)-2-(4-ethyl-2,3-dioxopiperazine-1-carboxamido)acetamido)-2-hydroxy-3,4-dihydro-2H-benzo[e][1,2]oxaborinine-8-carboxylic acid] | 32 to 64 (≈ 55.5 to 111 µM) | 2 to 4 (≈ 3.47 to 6.94 µM) | > 128 | 32 to 64 (≈ 55.5 to 111 µM) | 2 to 4 (≈ 3.47 to 6.94 µM) | 2 to 4 (≈ 3.47 to 6.94 µM) | 0.5 to 1 (≈ 0.867 to 1.73 µM) | 32 to 64 (≈ 55.5 to 111 µM) | > 128 | > 128 | < 0.25 | 32 to 64 (≈ 55.5 to 111 µM)
7 | CCN1CCN(C(=O)NC(C(=O)N[C@H]2Cc3cccc(C(=O)O)c3OB2O)c2c(F)cc(NC(C)=O)cc2F)C(=O)C1=O (stereo partly drawn) [Example 188, (3R)-3-(2-(4-acetamido-2,6-difluorophenyl)-2-(4-ethyl-2,3-dioxopiperazine-1-carboxamido)acetamido)-2-hydroxy-3,4-dihydro-2H-benzo[e][1,2]oxaborinine-8-carboxylic acid] | 32 to 64 (≈ 53.2 to 106 µM) | 2 to 4 (≈ 3.33 to 6.65 µM) | > 128 | 32 to 64 (≈ 53.2 to 106 µM) | 32 to 64 (≈ 53.2 to 106 µM) | 2 to 4 (≈ 3.33 to 6.65 µM) | 0.5 to 1 (≈ 0.831 to 1.66 µM) | > 128 | > 128 | > 128 | < 0.25 | 32 to 64 (≈ 53.2 to 106 µM)
